From PMC8600679, “Substituted Two- to Five-Ring Polycyclic Aromatic Compounds Are Potent Agonists of Atlantic Cod (Gadus morhua) Aryl Hydrocarbon Receptors Ahr1a and Ahr2a” (Environmental Science & Technology, 2021)
Like-named read-outs stand apart in the source and are kept apart here.

Experiments:
[1] = target: Atlantic cod Ahr1a (Gadus morhua, UniProt A0A6H1Z2L5); assay: cell-based; details: for Activation of Ahr1a (agonist or not): in vitro transactivation; for Ahr1a REP25: EC25 of TCDD divided by concentration of PAC giving 25% of TCDD response; for Efficacy compared to TCDD with Ahr1a: Welch's t-test, Supporting Table S6
Chain of Atlantic cod Ahr1a (A0A6H1Z2L5 1-957): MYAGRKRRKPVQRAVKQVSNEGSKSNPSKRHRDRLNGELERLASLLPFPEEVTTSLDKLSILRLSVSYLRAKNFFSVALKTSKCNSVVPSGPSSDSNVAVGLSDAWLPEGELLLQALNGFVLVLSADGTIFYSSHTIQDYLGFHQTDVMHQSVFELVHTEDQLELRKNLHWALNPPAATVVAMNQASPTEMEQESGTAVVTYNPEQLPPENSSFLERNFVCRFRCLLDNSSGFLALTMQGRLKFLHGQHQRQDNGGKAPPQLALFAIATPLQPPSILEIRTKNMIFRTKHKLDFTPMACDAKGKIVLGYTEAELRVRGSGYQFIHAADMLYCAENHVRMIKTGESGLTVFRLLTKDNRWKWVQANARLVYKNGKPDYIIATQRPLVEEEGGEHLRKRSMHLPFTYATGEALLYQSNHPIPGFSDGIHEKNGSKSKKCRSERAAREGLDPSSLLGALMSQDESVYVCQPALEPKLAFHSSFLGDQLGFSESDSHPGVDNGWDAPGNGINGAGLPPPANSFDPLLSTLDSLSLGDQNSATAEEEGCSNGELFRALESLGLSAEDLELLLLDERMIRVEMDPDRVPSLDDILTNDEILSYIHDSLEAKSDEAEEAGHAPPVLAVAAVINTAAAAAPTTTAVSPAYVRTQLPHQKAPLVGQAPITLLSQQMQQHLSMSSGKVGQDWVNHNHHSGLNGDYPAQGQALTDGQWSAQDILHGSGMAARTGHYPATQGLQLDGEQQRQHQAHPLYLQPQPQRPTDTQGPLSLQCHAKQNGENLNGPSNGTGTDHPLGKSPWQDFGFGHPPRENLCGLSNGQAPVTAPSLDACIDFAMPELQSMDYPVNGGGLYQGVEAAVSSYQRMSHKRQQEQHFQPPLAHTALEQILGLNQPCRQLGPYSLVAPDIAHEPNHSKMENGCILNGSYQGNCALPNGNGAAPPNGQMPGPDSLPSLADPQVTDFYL
Chain of Atlantic cod Ahr1a (A0A8C5CZZ9 1-645 partner): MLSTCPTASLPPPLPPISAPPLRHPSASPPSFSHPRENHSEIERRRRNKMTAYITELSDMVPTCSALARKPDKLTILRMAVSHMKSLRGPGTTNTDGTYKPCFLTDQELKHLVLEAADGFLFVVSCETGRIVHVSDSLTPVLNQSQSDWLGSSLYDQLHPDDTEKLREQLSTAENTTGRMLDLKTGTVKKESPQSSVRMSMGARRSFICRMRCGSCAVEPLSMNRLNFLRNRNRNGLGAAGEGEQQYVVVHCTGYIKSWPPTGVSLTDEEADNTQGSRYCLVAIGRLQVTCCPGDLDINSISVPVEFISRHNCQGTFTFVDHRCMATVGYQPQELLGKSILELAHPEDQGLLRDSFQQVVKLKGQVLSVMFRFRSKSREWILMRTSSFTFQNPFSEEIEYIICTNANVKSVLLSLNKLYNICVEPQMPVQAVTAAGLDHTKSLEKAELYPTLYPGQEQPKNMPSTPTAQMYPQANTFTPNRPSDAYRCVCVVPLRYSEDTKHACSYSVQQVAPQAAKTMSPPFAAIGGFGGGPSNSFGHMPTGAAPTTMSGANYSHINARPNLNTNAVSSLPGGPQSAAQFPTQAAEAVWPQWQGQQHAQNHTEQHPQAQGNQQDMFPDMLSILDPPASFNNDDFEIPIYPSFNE

[2] = target: T1, Atlantic cod Ahr2a (Gadus morhua, UniProt A0A6H1Z3G8); assay: cell-based; details: for Activation of Ahr2a (agonist or not): in vitro transactivation; for Ahr2a REP25: EC25 of TCDD divided by concentration of PAC giving 25% of TCDD response; for Efficacy compared to TCDD via Ahr2a: Welch's t-test, Supporting Table S6; for fold higher REP25 with Ahr2a compared to Ahr1a: Ahr2a versus Ahr1a
T1 sequence (A0A6H1Z3G8 1-1127): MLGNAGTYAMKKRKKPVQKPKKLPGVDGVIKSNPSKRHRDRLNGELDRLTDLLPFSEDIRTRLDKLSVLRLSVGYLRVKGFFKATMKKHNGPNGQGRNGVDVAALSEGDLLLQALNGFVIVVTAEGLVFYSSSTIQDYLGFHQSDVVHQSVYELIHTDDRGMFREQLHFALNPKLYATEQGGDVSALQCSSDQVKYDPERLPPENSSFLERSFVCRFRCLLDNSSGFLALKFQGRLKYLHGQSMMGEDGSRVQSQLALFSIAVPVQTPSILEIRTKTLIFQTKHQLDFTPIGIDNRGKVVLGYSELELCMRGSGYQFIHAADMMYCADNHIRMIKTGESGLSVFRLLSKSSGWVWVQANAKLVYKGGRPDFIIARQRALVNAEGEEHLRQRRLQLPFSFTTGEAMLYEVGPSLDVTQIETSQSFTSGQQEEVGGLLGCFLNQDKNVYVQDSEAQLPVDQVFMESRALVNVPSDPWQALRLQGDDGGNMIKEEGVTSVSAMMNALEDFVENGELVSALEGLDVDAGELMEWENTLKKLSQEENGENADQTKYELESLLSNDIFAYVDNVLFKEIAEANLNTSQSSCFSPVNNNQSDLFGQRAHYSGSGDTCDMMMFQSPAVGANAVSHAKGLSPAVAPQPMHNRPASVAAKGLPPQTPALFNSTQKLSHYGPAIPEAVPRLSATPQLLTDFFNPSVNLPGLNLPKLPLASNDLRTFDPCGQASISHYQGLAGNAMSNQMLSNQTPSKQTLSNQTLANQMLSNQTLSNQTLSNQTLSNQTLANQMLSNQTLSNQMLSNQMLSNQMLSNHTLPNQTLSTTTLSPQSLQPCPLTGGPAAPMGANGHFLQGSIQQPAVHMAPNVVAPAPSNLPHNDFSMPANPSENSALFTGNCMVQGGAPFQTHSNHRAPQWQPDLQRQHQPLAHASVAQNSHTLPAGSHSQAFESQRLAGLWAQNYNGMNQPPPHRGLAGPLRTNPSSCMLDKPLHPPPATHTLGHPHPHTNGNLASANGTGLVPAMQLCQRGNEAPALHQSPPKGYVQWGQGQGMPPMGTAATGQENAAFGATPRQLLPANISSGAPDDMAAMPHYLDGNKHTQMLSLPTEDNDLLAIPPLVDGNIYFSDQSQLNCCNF

[3] = percent of maximum efficacy determined for TCDD, COS-7 cells, 24 h exposure, None = no agonistic response significantly different from solvent
[4] = COS-7 cells, 24 h exposure, read-out: Ahr1a EC50
[5] = Supplementary Table S5, read-out: Potency (EC50, nM) Ahr1a
[6] = percent of maximum efficacy determined for TCDD, COS-7 cells, 24 h exposure, None = no agonistic response significantly different from solvent, read-out: Ahr1a Relative Emax (%)
[7] = COS-7 cells, 24 h exposure, read-out: Ahr2a EC50
[8] = Supplementary Table S5, read-out: Potency (EC50, nM) Ahr2a
[9] = percent of maximum efficacy determined for TCDD, COS-7 cells, 24 h exposure, None = no agonistic response significantly different from solvent, read-out: Ahr2a Relative Emax (%)
[10] = Ahr1a EC50 (nM), COS-7 cells, 24 h exposure
[11] = COS-7, read-out: Ahr1a Relative Emax (%)
[12] = Ahr2a EC50 (nM), COS-7 cells, 24 h exposure
[13] = COS-7, read-out: Ahr2a Relative Emax (%)
[14] = COS-7, Supplementary Table S5, read-out: Efficacy (Emax, %) Ahr1a
[15] = COS-7, Supplementary Table S5, read-out: Efficacy (Emax, %) Ahr2a
[16] = COS-7, curve did not reach a plateau: relative response at the highest tested concentration, percent of TCDD maximum, read-out: Ahr1a Relative Emax (%), marked *
[17] = COS-7, curve did not reach a plateau: relative response at the highest tested concentration, percent of TCDD maximum, read-out: Ahr2a Relative Emax (%), marked *

| SMILES | Activation of Ahr1a (agonist or not) [1] | Ahr1a Relative Emax (%) [1, 3] | Activation of Ahr2a (agonist or not) [2] | Ahr2a Relative Emax (%) [2, 3] | Ahr1a REP25 [1] | Efficacy compared to TCDD with Ahr1a [1] | Ahr2a REP25 [2] | other results |
| --- | --- | --- | --- | --- | --- | --- | --- | --- |
| Cc1ccc(C)c2c1ccc1ccccc12 [1,4-DMP, 1,4-Dimethylphenanthrene] | did not activate | None | did not activate | None | – | – | – | – |
| Cc1ccc2c(ccc3c(C)cccc32)c1 [1,7-DMP, 1,7-Dimethylphenanthrene] | did not activate | None | did not activate | None | – | – | – | – |
| COc1cccc2c1ccc1c3ccccc3ccc21 [1-MOC, 1-Methoxychrysene] | – | – | – | – | 0.0277 | efficacies similar to that of TCDD | 0.0243 | EC50 [1, 4]: 102 nM; EC50 [1, 5]: 102 nM; Emax [1, 6]: 97.3%; EC50 [2, 7]: 160 nM; EC50 [2, 8]: 160 nM; Efficacy compared to TCDD via Ahr2a [2]: lower efficacies in comparison to TCDD; Emax [2, 9]: 66.4% |
| Cc1ccc2c(ccc3cc(C)ccc32)c1 [2,7-DMP, 2,7-Dimethylphenanthrene] | did not activate | None | did not activate | None | – | – | – | – |
| Oc1ccc2c(ccc3c4ccccc4ccc23)c1 [2-COH, Chrysene-2-ol] | – | – | – | – | 0.00268 | efficacies similar to that of TCDD | 0.0038 | EC50 [1, 10]: 325 nM; Emax [1, 11]: 91.1%; EC50 ([1]; Potency (EC50, nM) Ahr1a, Supplementary Table S5): 324 nM; EC50 [2, 12]: 380 nM; Emax [2, 13]: 40.8%; Efficacy compared to TCDD via Ahr2a [2]: lower efficacies in comparison to TCDD |
| Cc1ccc2c(ccc3c4ccccc4ccc23)c1 [2-MC, 2-Methylchrysene] | – | – | – | – | 0.324 | higher efficacies (superefficacies) than TCDD | – | Emax [1, 14]: 125%; EC50 [1, 4]: 22 nM; Emax [1, 6]: 125%; Emax [2, 15]: 127%; EC50 [2, 7]: 41.8 nM; Efficacy compared to TCDD via Ahr2a [2]: superefficacies; Emax [2, 9]: 127% |
| COc1ccc2c(ccc3c4ccccc4ccc23)c1 [2-MOC, 2-Methoxychrysene] | – | – | – | – | 0.244 | efficacies similar to that of TCDD | – | EC50 [1, 4]: 13 nM; Emax [1, 6]: 95.9%; Emax [2, 15]: 114%; EC50 [2, 7]: 20.1 nM; Efficacy compared to TCDD via Ahr2a [2]: superefficacies; Emax [2, 9]: 115% |
| Cc1ccc2ccc3ccc(C)cc3c2c1 [3,6-DMP, 3,6-Dimethylphenanthrene] | did not activate | None | did not activate | None | – | – | – | – |
| CCc1ccc2ccc3ccccc3c2c1 [3-EP, 3-Ethylphenanthrene] | did not activate | None | did not activate | None | – | – | – | – |
| Cc1ccc2ccc3c4ccccc4ccc3c2c1 [3-MC, 3-Methylchrysene] | – | – | – | – | 0.0413 | efficacies similar to that of TCDD | 0.167 | Emax [1, 14]: 110%; EC50 [1, 5]: 101 nM; Emax [1, 6]: 111%; Emax [2, 15]: 102%; EC50 [2, 7]: 54 nM; Emax [2, 9]: 102% |
| CCCc1ccc2ccc3ccccc3c2c1 [3-PP, 3-Propylphenanthrene] | activated both Ahr1a and Ahr2a | – | activated both Ahr1a and Ahr2a | – | 0.00011 | – | – | Emax [1, 16]: 42.5%; Emax [2, 9]: 12.4% |
| Oc1cccc2ccc3c4ccccc4ccc3c12 [4-COH, Chrysene-4-ol] | – | – | – | – | 0.00105 | efficacies similar to that of TCDD | 0.0016 | EC50 [1, 4]: 1340 nM; Emax [1, 6]: 91.7%; Emax [2, 17]: 98.8%; EC50 [2, 8]: 11000 nM |
| Cc1cccc2ccc3c4ccccc4ccc3c12 [4-MC, 4-Methylchrysene] | – | – | – | – | 0.041 | higher efficacies (superefficacies) than TCDD | 0.0217 | Emax [1, 14]: 112%; EC50 [1, 4]: 120 nM; Emax [1, 6]: 113%; EC50 [2, 7]: 128 nM; EC50 [2, 8]: 128 nM; Efficacy compared to TCDD via Ahr2a [2]: lower efficacies in comparison to TCDD; Emax [2, 9]: 55.9% |
| c1ccc2c(c1)cc1ccc3cccc4ccc2c1c34 [BAP, Benzo[a]pyrene] | agonist for both Ahrs | – | agonist for both Ahrs | – | 0.0956 | higher efficacies (superefficacies) than TCDD | – | EC50 [1, 10]: 25.8 nM; Emax [1, 11]: 107%; Emax ([1]; COS-7, read-out: Efficacy (Emax, %) Ahr1a): 107%; EC50 [2, 12]: 6.8 nM; fold higher REP25 with Ahr2a compared to Ahr1a [2]: 5- to 10 fold; Emax [2, 13]: 103%; Emax ([2]; COS-7, read-out: Efficacy (Emax, %) Ahr2a): 103% |
| c1ccc2c(c1)sc1ccccc12 [DBT, Dibenzothiophene] | did not activate | None | did not activate | None | – | – | – | – |
| c1ccc2c(c1)Cc1ccccc1-2 [FLU, Fluorene] | did not activate | None | did not activate | None | – | – | – | – |
| c1ccc2ccccc2c1 [NAP, Naphthalene] | did not activate | None | did not activate | None | – | – | – | – |
| c1ccc2c(c1)ccc1ccccc12 [PHE, Phenanthrene] | did not activate | None | did not activate | None | – | – | – | – |
| c1cc2ccc3cccc4ccc(c1)c2c34 [PYR, Pyrene] | did not activate | None | did not activate | None | – | – | – | – |
| O[C@@H]1C=Cc2ccccc2[C@H]1O [R,R-1,2-DHN, (1R,2R)-1.2-Dihydronaphthalene-1,2-diol] | activated both Ahr1a and Ahr2a | – | activated both Ahr1a and Ahr2a | – | 0.00028 | – | 0.00124 | Emax [1, 16]: 145%; fold higher REP25 with Ahr2a compared to Ahr1a [2]: 5- to 10 fold; Emax [2, 17]: 140% |
| O[C@@H]1C=Cc2c(ccc3ccccc23)[C@H]1O [R,R-1,2-DHP, (1R,2R)-1.2-Dihydrophenanthrene-1,2-diol] | activated both Ahr1a and Ahr2a | – | activated both Ahr1a and Ahr2a | – | 0.00002 | – | 0.000044 | Emax [1, 16]: 36.1%; Emax [2, 17]: 25.9% |
